Measurements: article PMC6915135, “Simultaneous Quantification of Brigatinib and Brigatinib-Analog in Rat Plasma and Brain Homogenate by LC-MS/MS: Application to Comparative Pharmacokinetic and Brain Distribution Studies” (International Journal of Analytical Chemistry, 2019)

Columns and labels:
[1] = Pharmacokinetic study in rats after single oral administration (plasma, LC-MS/MS); type: in vivo, male Sprague Dawley rats; details: 5 mg/kg single oral, male SD rats, mean ± SD; for Vd (apparent volume of distribution) / AUC(0-t) / Cmax / MRT / Tmax / half-life: n = 6; for AUC(0-t) / Cmax / MRT / Tmax / half-life / CL/F: Sprague Dawley, rat; for CL/F: n = 6, read-out: CL (CLz/F)
Protocol: (§1) Seventy-two male Sprague Dawley rats weighing 180–220 g (7-8 weeks old, Certificate no. SCXK (Shandong) 2014-0007) were supplied by Shandong Laboratory Animal Center, Shandong First Medical University & Shandong Academy of Medical Sciences. All rats were kept in plastic cages with 12 h day/night cycle under controlled temperature (about 23–25°C) and fed with standard laboratory rat diet and water ad libitum. All the animal welfare and experimental procedures were approved by the Animal Ethics Committee at the Institute of Materia Medica, Shandong First Medical University & Shandong Academy of Medical Sciences (Jinan, China) and strictly in accordance with the guide for the care and use of laboratory animals (National Research Council of USA, 1996).
For the pharmacokinetic studies, after fasting with free access to water for at least 12 h, twelve rats were randomly divided into two groups (n = 6). The brigatinib and brigatinib-analog were both dissolved in ethanol-0.5% methylcellulose (1 : 19) for dosing. The two group rats were intragastrically administered with brigatinib and brigatinib-analog at the same dose of 5 mg/kg, respectively.
Blood samples, about 100 μL of each, were placed in heparinized Eppendorf tubes predose and at 5, 15, 30, 60, 120, 180, 240, 300, 360, 480, 720, and 1,440 min postdose from the jugular vein of rats. The blood samples were immediately centrifuged at 3,500 rpm for 15 min at 4°C, and the plasma samples were transferred carefully from each collection and stored at −20°C until analysis.
(§2) Experimental data were expressed as mean ± standard deviation (SD). Drug and Statistics 2.0 (DAS 2.0) software package (Mathematical Pharmacology Professional Committee of China, Shanghai, China) was used for estimating pharmacokinetic and brain distribution parameters by a noncompartmental method. Statistical analyses were performed with statistical software IBM SPSS Statistics 20.0 (IBM Corporation, Armonk, NY, USA). Differences between two groups were evaluated by the t-test. A value of p < 0.05 was considered as statistically significant.

[2] = Brain distribution study in rats after single oral administration (brain homogenate, LC-MS/MS); type: in vivo, male Sprague Dawley rats; details: for blood-brain barrier penetration / Kp: 5 mg/kg oral, rats; for Cmax / MRT / Tmax / half-life / Kp: Sprague Dawley, rat; for Cmax / MRT / Tmax / half-life / AUC(0–t): brain, 5 mg/kg single oral, male SD rats, mean ± SD, n = 6; for Kp: male, average AUC(0–t) brain to plasma, 1 g brain taken as 1 mL plasma, read-out: ratio of AUCbrain/AUCplasma
Protocol: as §1
For the brain distribution studies, the remaining sixty rats were randomly divided into ten groups (n = 6, per group). The distributions of brigatinib and brigatinib-analog in the rat brain were also investigated at the dose of 5 mg/kg after single oral administration to rats. The whole brain was excised immediately at 5, 60, 240, 480, and 1,440 min postdose, thoroughly rinsed with 0.9% saline solution, and wiped with a filter paper. Each brain sample was weighed accurately and homogenized in double distilled water (1 : 5, w/v) by using a tissue homogenizer (IKA, Germany) and frozen at −20°C until analysis.
as §2

[3] = Stability of QC samples in rat plasma under various storage conditions; type: in vitro ADME; details: for Stability under the storage conditions investigated: rat plasma and brain homogenate QC samples, 6 h ambient, −20°C 10 d, three freeze-thaw cycles, 24 h at 4°C autosampler; for Measured conc. after ambient temperature for 6 h / Measured conc. after autosampler at 4°C for 24 h / Measured conc. after three freeze-thaw cycles / Measured conc. after −20°C for 10 d: rat plasma, n = 6
Protocol: (§3) The stability of brigatinib and brigatinib-analog was evaluated by analysis of low and high concentration levels of QC samples under different conditions (n = 6). The temperature and timing conditions were as follows: 6 h at ambient temperature, stored at −20°C for 10 d, three freeze-thaw cycles, and 24 h at 4°C in an autosampler. The measured concentrations were all within acceptable limits (±15% of the nominal concentrations) during the entire validation. […] Carryover was evaluated by determining the peak areas for brigatinib and brigatinib-analog by injecting blank matrix samples sequentially after the highest calibration standard sample injection. Furthermore, no carryover effect was obtained in this study.

[4] = Stability of QC samples in rat brain homogenate under various storage conditions; type: in vitro ADME; details: n = 6
Protocol: as §3

[5] = tested on: the triple mutation; set-up: method as in PMID 28287083, PMID 27780853; details: read-out: IC50 against the triple mutation; cited from earlier work

| SMILES | Vd (apparent volume of distribution) [1] [L/kg] | AUC(0-t) [1] [µg·h/mL] | Cmax [1] [µg/mL] | MRT [1] [h] | Tmax [1] [h] | half-life [1] [h] | CL/F [1] [L/h/kg] | blood-brain barrier penetration [2] | Cmax [2] [ng/g] | MRT [2] [h] | Tmax [2] [h] | half-life [2] [h] | AUC(0–t) [2] | Kp [2] | Stability under the storage conditions investigated [3] | Measured conc. after ambient temperature for 6 h ([3]; spiked 2.0 ng/mL) [ng/mL] | Measured conc. after autosampler at 4°C for 24 h ([3]; spiked 2.0 ng/mL) [ng/mL] | Measured conc. after three freeze-thaw cycles ([3]; spiked 2.0 ng/mL) [ng/mL] | Measured conc. after −20°C for 10 d ([3]; spiked 2.0 ng/mL) [ng/mL] | Measured conc. after ambient temperature for 6 h ([3]; spiked 1600 ng/mL) [ng/mL] | further results |
| --- | --- | --- | --- | --- | --- | --- | --- | --- | --- | --- | --- | --- | --- | --- | --- | --- | --- | --- | --- | --- | --- |
| COc1cc(N2CCC(N(C)C)CC2)ccc1Nc1ncc(Cl)c(Nc2ccccc2P(C)(C)=O)n1 [Brigatinib-analog] | 3.43 ± 0.96 | 4.37 | 0.734 ± 0.0831 | 5.48 | 4.33 | 2.01 ± 0.496 | 1.26 ± 0.36 | could both penetrate the blood-brain barrier | 45.8 ± 11.8 | 6.32 | 4 | 4.27 ± 0.667 | 23196.08 ± 4932.95^∗ ng/g·min | 0.088 | stable | 2.03 ± 0.11 | 1.89 ± 0.12 | 2.01 ± 0.09 | 1.95 ± 0.12 | 1638.54 ± 97.76 | Measured conc. after autosampler at 4°C for 24 h ([3]; spiked 1600 ng/mL): 1582.61 ± 101.88 ng/mL; Measured conc. after three freeze-thaw cycles ([3]; spiked 1600 ng/mL): 1578.36 ± 125.20 ng/mL; Measured conc. after −20°C for 10 d ([3]; spiked 1600 ng/mL): 1705.49 ± 109.83 ng/mL; Measured conc. after ambient temperature for 6 h ([4]; spiked 1.0 ng/mL): 1.04 ± 0.05 ng/mL; Measured conc. after autosampler at 4°C for 24 h ([4]; spiked 1.0 ng/mL): 0.97 ± 0.06 ng/mL; Measured conc. after three freeze-thaw cycles ([4]; spiked 1.0 ng/mL): 0.98 ± 0.07 ng/mL; Measured conc. after −20°C for 10 d ([4]; spiked 1.0 ng/mL): 1.07 ± 0.11 ng/mL; Measured conc. after ambient temperature for 6 h ([4]; spiked 800 ng/mL): 828.64 ± 66.54 ng/mL; Measured conc. after autosampler at 4°C for 24 h ([4]; spiked 800 ng/mL): 783.28 ± 32.39 ng/mL; Measured conc. after three freeze-thaw cycles ([4]; spiked 800 ng/mL): 833.68 ± 56.59 ng/mL; Measured conc. after −20°C for 10 d ([4]; spiked 800 ng/mL): 846.09 ± 53.83 ng/mL; IC50 [5]: < 0.1 µM |
| COc1cc(N2CCC(N3CCN(C)CC3)CC2)ccc1Nc1ncc(Cl)c(Nc2ccccc2P(C)(C)=O)n1 [Brigatinib] | 5.66 ± 1.94 | 4.36 | 0.538 ± 0.186 | 6.73 | 4.33 | 3.16 ± 0.343 | 1.32 ± 0.6 | could both penetrate the blood-brain barrier | 68.9 ± 21.6 | 7.48 | 5.5 | 5.32 ± 1.95 | 58255.81 ± 13725.10 ng·min/g | 0.223 | stable | 2.10 ± 0.12 | 1.90 ± 0.10 | 1.94 ± 0.09 | 2.05 ± 0.17 | 1585.06 ± 98.31 | Measured conc. after autosampler at 4°C for 24 h ([3]; spiked 1600 ng/mL): 1645.17 ± 118.52 ng/mL; Measured conc. after three freeze-thaw cycles ([3]; spiked 1600 ng/mL): 1678.34 ± 95.87 ng/mL; Measured conc. after −20°C for 10 d ([3]; spiked 1600 ng/mL): 1719.73 ± 107.09 ng/mL; Measured conc. after ambient temperature for 6 h ([4]; spiked 1.0 ng/mL): 1.06 ± 0.08 ng/mL; Measured conc. after autosampler at 4°C for 24 h ([4]; spiked 1.0 ng/mL): 0.96 ± 0.05 ng/mL; Measured conc. after three freeze-thaw cycles ([4]; spiked 1.0 ng/mL): 1.02 ± 0.06 ng/mL; Measured conc. after −20°C for 10 d ([4]; spiked 1.0 ng/mL): 0.97 ± 0.06 ng/mL; Measured conc. after ambient temperature for 6 h ([4]; spiked 800 ng/mL): 788.85 ± 69.25 ng/mL; Measured conc. after autosampler at 4°C for 24 h ([4]; spiked 800 ng/mL): 813.16 ± 72.23 ng/mL; Measured conc. after three freeze-thaw cycles ([4]; spiked 800 ng/mL): 847.44 ± 57.65 ng/mL; Measured conc. after −20°C for 10 d ([4]; spiked 800 ng/mL): 760.29 ± 48.33 ng/mL; IC50 [5]: < 0.1 µM |
